We go through 3 compounds from patent publication US7514432B2, “Compounds and methods of treating cell proliferative diseases, retinopathies and arthritis” (Exonhit Therapeutics SA, priority 2003, dated 2009).

One experiment relates to HMEC1. Briefly: Boyden chamber migration assay, HMEC1. The note with it: Homo sapiens, read-out: IC50, migration in Boyden chamber, HMEC1. Format: cell-based. The protocol:
FIG. 4: Migration assays. (A) Wound healing assay in REF cells. 7.6 10^4 cells were plated on coverslips 48 hours before the experiment. The cells were pre-treated for 30 min. with the compounds, and then a scrape was done using a pipette tip. The scraped coverslips in treatment medium were put under a thermostated microscope coupled to a video camera. Movies were analyzed as described in material and methods, and velocity and total distance covered by the cells were evaluated. Bar graphs represent the mean±SEM of 2 to 4 experiments. (B) Boyden chamber migration assay in HMEC1, NIH3T3 and MDA-MB-231 cells. 5 10^4 to 7.5 10^4 Cells, resuspended in culture medium with or without FBS and with different compound concentrations, were seeded in the upper Boyden blind well on top of 8 μm pore-sized filters. The ability of the cells to migrate through the filter was assayed in the absence or presence of FBS in the lower Boyden chamber. After 16 hours incubation, the medium was removed and replaced with calcein-AM containing medium. After labeling, cells were washed with HBSS and fluorescence was read in a fluorescence plate reader. Fluorescence values were normalized against the fluorescence obtained for the 1% DMSO control. The data plotted are the means±SEM of 2 to 4 independent experiments.
An essential characteristic of malignant cells is their ability to migrate, invade host tissues and to produce metastases. In order to evaluate the capacity of one compound to affect the ability of tumoral cells to migrate, migration assays were performed using highly invasive tumoral cells MDA-MB-231, endothelial cells HMEC1 or fibroblastic cells NIH3T3. This assay was performed using Falcon HTS Fluoroblock inserts. […] Fluorescence data were collected using Fluoroskan Ascent FL fluorescence plate reader at an excitation wavelength (Ex) of 485 nm and emission wavelength (Em) of 517 nm. Only those labelled cells that passed through the Matrigel layer and the membrane were detected. […]

The test system of another experiment is HMEC-1 cells. In words: Tubule formation (tubulogenesis) assay on Matrigel. The class given is cell-based, Human. The note with it: HMEC1 on Matrigel; for IC50: Homo sapiens, HMEC-1, 6 to 8 hours, read-out: IC50, tubulogenesis (number of junctions). The protocol:
FIG. 5: Tubulogenesis assay (number of junctions). 2 10^4 Cells were plated on Matrigel-coated wells as described in the material and methods. Pictures of each well were taken after a 7-hours incubation. The “number of junctions” parameter was quantitated using the AngioSys software and data were analyzed using GraphPad Prism for IT50 calculation. Values represent the mean±SEM of 2 to 30 independent experiments.
The endothelial cell tube formation assay, or tubulogenesis assay, is an in vitro assay that is widely accepted to accurately reflect number of terminal stages of the angiogenic process such as attachment, migration and differentiation into tubular structures. In this model, endothelial cells are cultured on a monolayer of reconstituted basement membrane components (Matrigel) and form, in a few hours, capillary-lilke structure. Therefore, this system is a useful and powerful tool for rapidly screening anti-angiogenic agents by monitoring inhibition of endothelial cells morphogenesis on extracellular matrix.
HMEC-1 cell line is cultured in MCDB-131 medium (Sigma) supplemented with 15% FBS, 10 ng/ml recombinant human epidermal growth factor (Invitrogen) and 1 μg/ml hydrocortisone. Cells are cultured to 70-80% confluence. A 96-well plate was coated with Matrigel® Basement Membrane Matrix (Becton Dickinson). 2 10^4 HMEC-1 cells were seeded into each well. The test or control compounds were diluted in DMSO and added to the coated plate. The plate was subsequently incubated for 6 to 8 hours at 37° C., 5% CO2 atmosphere to allow tubule formation. The cells were then incubated with 1.25 μg/ml Calcein AM for 15 minutes at 37° C., 5% CO2. Pictures of each well were taken using a fluorescent microscope and a digital camera (Nikon Coolpix 990). Images were analysed using AngioSys software (TCS Cellworks) that allows quantification of the total tubule length and of the number of junctions, two parameters representative of tubule formation/disruption. Data was analyzed using the GraphPad Prism software, and IT50s (dose leading to 50% inhibition of tubulogenesis) was calculated.

[1] abbreviates: HMEC-1, FBS as chemoattractant, 16 hours.

Read-outs that look alike come from different tables or passages of the source.

Take `Cl.Cl.O=c1cc(CN2CCOCC2)occ1OCCCCCSc1ccnc2cc(C(F)(F)F)ccc12` [EHT 1864, 5-(5-(7-(Trifluoromethyl)quinolin-4-ylthio)pentyloxy)-2-(morpholinomethyl)-4H-pyran-4-one dihydrochloride]: the IC50 in the experiment on HMEC1 (HMEC-1, 16 h) was 7.8 ± 1.7 µM. In the experiment on HMEC-1 cells, the “fold more active than reference compound CAI in tubulogenesis” value was found to be 4 fold and the IC50 came out at 34.9 ± 3.5 µM.

For the compound `CN1CCN(Cc2cc(=O)c(OCCCCCSc3ccnc4cc(C(F)(F)F)ccc34)co2)CC1.Cl.Cl.Cl` [EHT 9241, 5-(5-(7-(Trifluoromethyl)quinolin-4-ylthio)pentyloxy)-2-((4-methylpiperazin-1-yl)methyl)-4H-pyran-4-one trihydrochloride], the IC50 with HMEC1 (setting [1]) was determined as 9.1 ± 1.4 µM; in the experiment on HMEC-1 cells, 26 ± 8.7 µM.

Regarding `Cl.Cl.Cl.O=c1cc(CN2CCNCC2)occ1OCCCCCSc1ccnc2cc(C(F)(F)F)ccc12` [EHT 8560, 5-(5-(7-(Trifluoromethyl)quinolin-4-ylthio)pentyloxy)-2-((piperazin-1-yl)methyl)-4H-pyran-4-one trihydrochloride], the IC50 in the experiment on HMEC1 (setting [1]) worked out at 9.5 ± 0.3 µM; with HMEC-1 cells it was 17 ± 3.6 µM.
